In PubChem BioAssay AID296 (DTP/NCI, 2004):
Values joined by “and” are separate entries in the source; they are usually repeats but may differ in a detail not shown here. Equal entries are not always repeated. Results filed as inconclusive are left out.

Test system: MX-1 breast xenograft, nude mice, tumor weight T/C
Experiment: NCI In Vivo Anticancer Drug Screen. Data for tumor model Human Mammary Carcinoma MX-1 Xenograft (intrarenal inoculation) in NU/NU Swiss (nude) mice
Settings: endpoint: mean tumor weight change, higher = larger tumour
Procedure, shortened: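 Antitumour effect measured in vivo against vehicle controls, expressed as T/C.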

[1] = dose: 600.0 mg/kg/injection, schedule: Q04DX003 (sc), vehicle: Klucel (hydroxypropylcellulose) (HPC)
[2] = dose: 1200.0 mg/kg/injection, schedule: Q04DX003 (sc), vehicle: Klucel (hydroxypropylcellulose) (HPC)
[3] = dose: 100.0 mg/kg/injection, schedule: Q04DX003 (sc), vehicle: Klucel (hydroxypropylcellulose) (HPC)
[4] = dose: 200.0 mg/kg/injection, schedule: Q04DX003 (sc), vehicle: Klucel (hydroxypropylcellulose) (HPC)
[5] = dose: 4.0 mg/kg/injection, schedule: Q01DX010 (sc), vehicle: saline
[6] = dose: 75.0 mg/kg/injection, schedule: Q04DX003 (sc), vehicle: suspension in saline
[7] = dose: 150.0 mg/kg/injection, schedule: Q04DX003 (sc), vehicle: suspension in saline
[8] = dose: 600.0 mg/kg/injection, schedule: Q04DX003 (sc), vehicle: suspension in saline
[9] = dose: 12.5 mg/kg/injection, schedule: Q01DX010 (sc), vehicle: dextrose

In the case of `C[CH2][Sn]([CH2]C)([O]S(C)(=O)=O)[O]S(C)(=O)=O`, the T/C (dose: 6.25 mg/kg/injection, schedule: Q04DX003 (sc), vehicle: saline with Tween-80) is reported as 83 % of control, the T/C (dose: 12.5 mg/kg/injection, schedule: Q04DX003 (sc), vehicle: saline with Tween-80) is reported as 95 % of control and the T/C (dose: 25.0 mg/kg/injection, schedule: Q04DX003 (sc), vehicle: saline with Tween-80) is reported as 95 % of control.
In the case of `Clc1ccc(C2SC=Cc3ccccc32)cc1` (stereo unspecified), the T/C [1] is reported as 90 % of control and the T/C [2] is reported as 115 % of control.
With `Nc1n[nH]c(N)n1` the T/C (dose: 200.0 mg/kg/injection, schedule: Q01DX010 (sc), vehicle: saline) was 92 % of control, the T/C (dose: 400.0 mg/kg/injection, schedule: Q01DX010 (sc), vehicle: saline) was 94 % of control and the T/C (dose: 800.0 mg/kg/injection, schedule: Q01DX010 (sc), vehicle: saline) was 111 % of control.
With `O=C1C=CC(n2cc(F)c(=O)[nH]c2=O)O1` (stereo unspecified) the T/C (dose: 75.0 mg/kg/injection, schedule: Q04DX003 (sc), vehicle: Klucel (hydroxypropylcellulose) (HPC)) was 104 % of control.
In the case of `O=C1C(NCC(O)CO)=C(N2CC2)C(=O)C(NCC(O)CO)=C1N1CC1` (stereo unspecified), the T/C (dose: 4.0 mg/kg/injection, schedule: Q04DX003 (ip), vehicle: saline) is reported as 76 % of control, the T/C (dose: 8.0 mg/kg/injection, schedule: Q04DX003 (ip), vehicle: saline) is reported as 69 % of control and the T/C (dose: 16.0 mg/kg/injection, schedule: Q04DX003 (ip), vehicle: saline) is reported as 46 % of control.
With `Nc1nc(/C=C(/O)c2ccccc2)c2ncn(C3OC(CO)C(O)C3O)c2n1` (stereo unspecified) the T/C (dose: 200.0 mg/kg/injection, schedule: Q04DX003 (sc), vehicle: distilled water + Tween-80) was 97 % of control, the T/C (dose: 400.0 mg/kg/injection, schedule: Q04DX003 (sc), vehicle: distilled water + Tween-80) was 100 % of control and the T/C (dose: 800.0 mg/kg/injection, schedule: Q04DX003 (sc), vehicle: distilled water + Tween-80) was 92 % of control. For the same compound, the T/C (dose: 1600.0 mg/kg/injection, schedule: Q04DX003 (sc), vehicle: distilled water + Tween-80) was 99 % of control.
For `O=c1oc2c(O)c(O)cc3c(=O)oc4c(O)c(O)cc1c4c23`, the T/C (dose: 150.0 mg/kg/injection, schedule: Q04DX003 (sc), vehicle: Klucel (hydroxypropylcellulose) (HPC)) was 115 % of control, the T/C (dose: 300.0 mg/kg/injection, schedule: Q04DX003 (sc), vehicle: Klucel (hydroxypropylcellulose) (HPC)) was 109 % of control and the T/C [1] was 67 % of control. For the same compound, the T/C [2] was 101 % of control.
For `COc1ccc2c(c1)CCC(c1ccccc1)=C2c1ccc(OCCN2CCCC2)cc1`, the T/C (dose: 25.0 mg/kg/injection, schedule: Q04DX003 (sc), vehicle: Klucel (hydroxypropylcellulose) (HPC)) was 79 % of control, the T/C (dose: 50.0 mg/kg/injection, schedule: Q04DX003 (sc), vehicle: Klucel (hydroxypropylcellulose) (HPC)) was 72 % of control and the T/C [3] was 70 % of control. The T/C [4] was 67 % of control.
In the case of `CCc1ccccc1N1CCN(C(=O)c2cc(OC)c(OC)c(OC)c2)CC1`, the T/C [3] is reported as 88 % of control, the T/C [4] is reported as 86 % of control and the T/C (dose: 400.0 mg/kg/injection, schedule: Q04DX003 (sc), vehicle: Klucel (hydroxypropylcellulose) (HPC)) is reported as 50 % of control.
With `COc1cc2cc(c1Cl)N(C)C(=O)C[C@H](OC(=O)[C@H](C)N(C)C(C)=O)[C@]1(C)O[C@H]1[C@H](C)[C@@H]1C[C@@](O)(NC(=O)O1)[C@H](OC)C=C/C=C(\C)C2` the T/C (dose: 50.0 micrograms/kg/injection, schedule: Q01DX010 (sc), vehicle: Klucel (hydroxypropylcellulose) (HPC)) was 99 % of control, the T/C (dose: 100.0 micrograms/kg/injection, schedule: Q01DX010 (sc), vehicle: Klucel (hydroxypropylcellulose) (HPC)) was 67 % of control and the T/C (dose: 200.0 micrograms/kg/injection, schedule: Q01DX010 (sc), vehicle: Klucel (hydroxypropylcellulose) (HPC)) was -74 % of control.
For `O=C1NC(c2ccccc2)N=C2Oc3ccccc3C=C12` (stereo unspecified), the T/C (dose: 50.0 mg/kg/injection, schedule: Q01DX008 (sc), vehicle: saline with Tween-80) was 57 % of control, the T/C (dose: 100.0 mg/kg/injection, schedule: Q01DX008 (sc), vehicle: saline with Tween-80) was 71 % of control and the T/C (dose: 200.0 mg/kg/injection, schedule: Q01DX008 (sc), vehicle: saline with Tween-80) was 56 % of control. The T/C (dose: 400.0 mg/kg/injection, schedule: Q01DX008 (sc), vehicle: saline with Tween-80) was 80 % of control.
For `COc1cccc2c1C(=O)c1c(O)c3c(c(O)c1C2=O)C[C@@](O)(C(=O)CO)C[C@@H]3OC1CC(N)CC(C)O1` (stereo partly specified), the T/C (dose: 0.19 mg/kg/injection, schedule: Q01DX010 (sc), vehicle: water) was 43 % of control, the T/C (dose: 0.37 mg/kg/injection, schedule: Q01DX010 (sc), vehicle: water) was 51 % of control and the T/C (dose: 0.75 mg/kg/injection, schedule: Q01DX010 (sc), vehicle: water) was 61 % of control. For the same compound, the T/C (dose: 1.5 mg/kg/injection, schedule: Q01DX010 (sc), vehicle: water) was 59 % of control.
For `COC12C(COC(N)=O)C3=C(C(=O)C(C)=C(N)C3=O)N1CC1C2N1C` (stereo unspecified), the T/C (dose: 8.0 mg/kg/injection, schedule: Q01DX010 (sc), vehicle: saline) was -96 % of control and -95 % of control.
`CC[C@H]1CN2CCc3cc(OC)c(OC)cc3[C@@H]2C[C@@H]1C[C@H]1NCCc2cc(OC)c(OC)cc21` was tested, and the T/C (dose: 2.0 mg/kg/injection, schedule: Q01DX010 (sc), vehicle: saline) was 114 % of control and the T/C [5] was 108 % of control.
For `CSC(SC)=C1C(=O)NC(=O)NC1=O`, the T/C [6] was 69 % of control, the T/C [7] was 75 % of control and the T/C (dose: 300.0 mg/kg/injection, schedule: Q04DX003 (sc), vehicle: suspension in saline) was 108 % of control. The T/C [8] was 42 % of control.
`O=[N+]([O-])c1ccc([I+]c2ccccc2)cc1` was tested, and the T/C (dose: 75.0 mg/kg/injection, schedule: Q04DX003 (ip), vehicle: Klucel (hydroxypropylcellulose) (HPC)) was 92 % of control.
`O=C1NC2(CCCCC2)C(=O)N1CCN(CCCl)CCCl` was tested, and the T/C (dose: 3.0 mg/kg/injection, schedule: Q01DX010 (sc), vehicle: saline) was 48 % of control.
`Nc1ncnc2c1nnn2C1OC(CO)C(O)C1O` (stereo unspecified) was tested, and the T/C (dose: 18.75 mg/kg/injection, schedule: Q04DX003 (sc), vehicle: Klucel (hydroxypropylcellulose) (HPC)) was 76 % of control and 80 % of control.
`N#Cc1ccc(NN=O)nc1` was tested, and the T/C (dose: 12.5 mg/kg/injection, schedule: Q04DX003 (ip), vehicle: water) was 110 % of control, the T/C (dose: 25.0 mg/kg/injection, schedule: Q04DX003 (ip), vehicle: water) was 18 % of control and the T/C (dose: 50.0 mg/kg/injection, schedule: Q04DX003 (ip), vehicle: water) was 18 % of control. The T/C (dose: 100.0 mg/kg/injection, schedule: Q04DX003 (ip), vehicle: water) was 20 % of control.
For `O=C(O)CC(=O)O.[NH-]CC[NH-].[Pt+2]`, the T/C [9] was -100 % of control and the T/C (dose: 100.0 mg/kg/injection, schedule: Q01DX010 (sc), vehicle: dextrose) was -100 % of control.
In the case of `COC1C(/C=C/C(C)=O)OC2OC(C)(C)OC21` (stereo unspecified), the T/C [6] is reported as 97 % of control, the T/C [7] is reported as 160 % of control and the T/C [8] is reported as 82 % of control. For the same compound, the T/C (dose: 1200.0 mg/kg/injection, schedule: Q04DX003 (sc), vehicle: suspension in saline) was 63 % of control.
`CCCCCC[C@H]([C@H](C)O)n1cnc2c(N)ncnc21` was tested, and the T/C (dose: 50.0 mg/kg/injection, schedule: Q01DX010 (sc), vehicle: Klucel (hydroxypropylcellulose) (HPC)) was 43 % of control, the T/C (dose: 100.0 mg/kg/injection, schedule: Q01DX010 (sc), vehicle: Klucel (hydroxypropylcellulose) (HPC)) was 116 % of control and the T/C (dose: 200.0 mg/kg/injection, schedule: Q01DX010 (sc), vehicle: Klucel (hydroxypropylcellulose) (HPC)) was 94 % of control.
In the case of `CC[C@@H](C)[C@@H]1NC(=O)C(NC(=O)C(CC(C)C)N(C)C(=O)C2CCCN2C(=O)C(C)O)C(C)OC(=O)C(Cc2ccc(OC)cc2)N(C)C(=O)C2CCCN2C(=O)C(CC(C)C)NC(=O)C(C)C(=O)C(C(C)C)OC(=O)C[C@H]1O` (stereo partly specified), the T/C (dose: 300.0 micrograms/kg/injection, schedule: Q04DX003 (sc), vehicle: distilled water + alcohol) is reported as 91 % of control, the T/C (dose: 600.0 micrograms/kg/injection, schedule: Q04DX003 (sc), vehicle: distilled water + alcohol) is reported as 157 % of control and the T/C (dose: 1200.0 micrograms/kg/injection, schedule: Q04DX003 (sc), vehicle: distilled water + alcohol) is reported as 27 % of control.
`COc1cccc2c1C(=O)c1c(O)c3c(c(O)c1C2=O)C[C@@](O)(C(C)=O)C[C@@H]3OC1CC(N)C(O)C(C)O1` (stereo partly specified) was tested, and the T/C (dose: 0.5 mg/kg/injection, schedule: Q01DX010 (sc), vehicle: saline) was 161 % of control and the T/C [5] was 78 % of control and 89 % of control.
For `O=C(O)C1(C(=O)O)CCC1.[NH2-].[NH2-].[Pt+2]`, the T/C [9] was 2 % of control and 11 % of control and the T/C (dose: 50.0 mg/kg/injection, schedule: Q01DX010 (sc), vehicle: dextrose) was -87 % of control and -75 % of control.
With `C=C1C(=O)O[C@@H]2[C@H](O)[C@@H](C)[C@@H]3C=CC(=O)[C@@]3(C)[C@H](OC(=O)C=C(C)C)[C@H]12` the T/C (dose: 9.38 mg/kg/injection, schedule: Q04DX003 (sc), vehicle: saline with Tween-80) was 65 % of control, the T/C (dose: 18.75 mg/kg/injection, schedule: Q04DX003 (sc), vehicle: saline with Tween-80) was 105 % of control and the T/C (dose: 37.5 mg/kg/injection, schedule: Q04DX003 (sc), vehicle: saline with Tween-80) was 84 % of control.
